Data published in US4220771A, “2,3-Polymethylene-4-oxo-4H-pyrido[1,2-a]pyrimidines” (Chinoin Gyogyszer es Vegyeszeti Termekek Gyara Rt, priority 1977, dated 1980).
Structures can show the parent of a compound that is named as a salt.

Legend:
Format in all cases: in vivo
mice [1] = experiment: analgesic activity, "hot plate" test; details: for ED50: Mus musculus
Description: (§1) Also the analgesic and morphine-potentiating activities were investigated on mice. The test results obtained in a "hot plate" test (J. Pharm. Exp. Therp. 80 130 (1944) and Kiserl. Orvostudomany 2, 295 (1950) and results obtained in laparotomic test of Knoll (Animal and Clinical Pharmacologic Techniques in Drug Evaluation. Vol. 2. 305-321 (1967), Year Book Publ. Chicago) are shown in Table 1.

[2] = toxicity in mice, 48 hours observation, Litchfield-Wilcoxon graphic method; details: mouse, in vivo
mice [3] = experiment: morphine-potentiating activity; details: i.v., with 5 mg. morphine
Description: as §1

mice [4] = experiment: toxicity in mice, 48 hours observation, Litchfield-Wilcoxon graphic method

O=c1c2c(nc3ccccn13)CCCCC2 [2,3-pentamethylene-4-oxo-4H-pyrido(1,2-a)pyrimidine-hydrochloride]
ED50 (mice [1]; sc): 66 mg/kg
LD50 at 48 h ([2]; iv): 210 mg/kg
LD50 at 48 h ([2]; sc): 630 mg/kg
Dose potentiating the activity of 5 mg. morphine, ED50 (mice [3]): 3.7 mg/kg

O=c1c2c(nc3ccccn13)CCCCCC2 [2,3-hexamethylene-4-oxo-4H-pyrido(1,2-a)pyrimidine-hydrochloride]
ED50 (mice [1]; sc): 105 mg/kg
LD50 at 48 h ([2]; iv): 125 mg/kg
LD50 at 48 h ([2]; sc): 500 mg/kg
Dose potentiating the activity of 5 mg. morphine, ED50 (mice [3]): 4.5 mg/kg

CCOC(=O)c1c[n+](C)c2n(c1=O)C(C)CCC2.COS(=O)(=O)[O-] (stereo not drawn) [PROBON, reference compound]
Hot plate ED50 (mice [1]; i.v.): 43 mg/kg
Hot plate ED50 (mice [1]; s.c.): 75 mg/kg
LD50 (mice [4]; i.v.): 220 mg/kg
LD50 (mice [4]; s.c.): 790 mg/kg
Dose potentiating the activity of 5 mg. morphine, ED50 (mice [3]): 25.0 mg/kg

Cc1ccn2c(=O)c3c(nc2c1)CCC3 [2,3-trimethylene-8-methyl-4-oxo-4H-pyrido(1,2-a)pyrimidine-hydrochloride]
ED50 (mice [1]; iv): 65 mg/kg
LD50 at 48 h ([2]; iv): 120 mg/kg
Dose potentiating the activity of 5 mg. morphine, ED50 (mice [3]): 4.8 mg/kg

Cc1cccc2nc3c(c(=O)n12)CCCC3 [2,3-tetramethylene-6-methyl-4-oxo-4H-pyrido(1,2-a)pyrimidine-hydrochloride]
LD50 at 48 h ([2]; iv): 160 mg/kg
Dose potentiating the activity of 5 mg. morphine, ED50 (mice [3]): 7.8 mg/kg

Cc1ccc2nc3c(c(=O)n2c1)CCC3 [2,3-trimethylene-7-methyl-4-oxo-4H-pyrido(1,2-a)pyrimidine-hydrochloride]
ED50 (mice [1]; iv): 47 mg/kg
LD50 at 48 h ([2]; iv): 120 mg/kg
Dose potentiating the activity of 5 mg. morphine, ED50 (mice [3]): 1.0 mg/kg

Cc1cc(C)n2c(=O)c3c(nc2c1)CCC3 [2,3-trimethylene-6,8-dimethyl-4-oxo-4H-pyrido(1,2-a)pyrimidine-hydrochloride]
ED50 (mice [1]; iv): 42 mg/kg
LD50 at 48 h ([2]; iv): 120 mg/kg
Dose potentiating the activity of 5 mg. morphine, ED50 (mice [3]): 1.0 mg/kg
